Measurements taken from PubChem BioAssay (NCI).
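Test compounds were applied to cells in 96-well plates for 48 hours at 5 doses. GI50 is the concentration that inhibits growth by half. Definition used: TGI = concentration required for complete inhibition of growth.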

Legend:
Assay in all cases: NCI tumour cell line growth inhibition, 48 h
[1] = system: IGROV1 ovarian
[2] = system: ACHN renal
[3] = system: COLO 205 colon
[4] = system: UO-31 renal
[5] = system: SN12C renal
[6] = system: M14 melanoma
[7] = system: HS 578T breast
[8] = system: MOLT-4 leukemia
[9] = system: HCT-116 colon
[10] = system: NCI/ADR-RES ovarian
[11] = system: K-562 leukemia
[12] = system: NCI-H460 lung
[13] = system: PC-3 prostate
[14] = system: A549 NSCLC
[15] = system: MCF7 breast
[16] = system: A498 renal
[17] = system: NCI-H23 lung
[18] = system: UACC-257 melanoma
[19] = system: SK-MEL-28 melanoma
[20] = system: HCC-2998 colon
[21] = system: HT29 colon
[22] = system: SF-539 CNS
[23] = system: MDA-MB-231 breast
[24] = system: NCI-H522 lung
[25] = system: SR leukemia
[26] = system: U251 CNS
[27] = system: SF-268 CNS
[28] = system: KM12 colon
[29] = system: SK-OV-3 ovarian
[30] = system: HCT-15 colon
[31] = system: OVCAR-4 ovarian
[32] = system: HL-60(TB) leukemia
[33] = system: OVCAR-8 ovarian
[34] = system: RPMI-8226 leukemia
[35] = system: TK-10 renal
[36] = system: CAKI-1 renal
[37] = system: RXF 393 renal
[38] = system: EKVX NSCLC
[39] = system: OVCAR-3 ovarian
[40] = system: SW-620 colon
[41] = system: SK-MEL-2 melanoma
[42] = system: SNB-75 CNS
[43] = system: BT-549 breast
[44] = system: OVCAR-5 ovarian
[45] = system: 786-0 renal
[46] = system: CCRF-CEM leukemia
[47] = system: MALME-3M melanoma
[48] = system: HOP-62 NSCLC
[49] = system: SK-MEL-5 melanoma
[50] = system: SF-295 CNS
[51] = system: MDA-MB-435
[52] = system: T-47D breast
[53] = system: SNB-19 CNS
[54] = system: LOX IMVI melanoma
[55] = system: UACC-62 melanoma
[56] = system: DU-145 prostate

Cc1c(C(=N)C(C#N)C#N)c(=N)oc2c1ccc1ccccc12
GI50 [1]: 7.76 µM | TGI [1]: 53.4 µM | GI50 [2]: 23.1 µM | TGI [2]: > 100 µM | GI50 [3]: 14.9 µM | TGI [3]: 29.8 µM | GI50 [4]: 8.23 µM | TGI [4]: > 100 µM | GI50 [5]: 22 µM | TGI [5]: > 100 µM | GI50 [6]: 23.9 µM | TGI [6]: > 100 µM | GI50 [7]: 10.5 µM | TGI [7]: 66.2 µM | GI50 [8]: 21.7 µM | TGI [8]: > 100 µM | GI50 [9]: 17.6 µM | TGI [9]: > 100 µM | GI50 [10]: 25.2 µM | TGI [10]: > 100 µM | GI50 [11]: 19.4 µM | TGI [11]: > 100 µM | GI50 [12]: 27.2 µM | TGI [12]: > 100 µM | GI50 [13]: 29.5 µM | TGI [13]: > 100 µM | GI50 [14]: 32.9 µM | TGI [14]: > 100 µM | GI50 [15]: 5.34 µM | TGI [15]: > 100 µM | GI50 [16]: 9.83 µM | TGI [16]: 96 µM | GI50 [17]: 16.8 µM | TGI [17]: > 100 µM | GI50 [18]: 28.6 µM | TGI [18]: > 100 µM | GI50 [19]: 22.5 µM | TGI [19]: 60.8 µM | GI50 [20]: 18 µM | TGI [20]: 39.3 µM | GI50 [21]: 20.5 µM | TGI [21]: 71.1 µM | GI50 [22]: 20.6 µM | TGI [22]: 71.5 µM | GI50 [23]: 19.1 µM | TGI [23]: > 100 µM | GI50 [24]: 8 µM | TGI [24]: 25.7 µM | GI50 [25]: 7.64 µM | TGI [25]: > 100 µM | GI50 [26]: 14.5 µM | TGI [26]: 37.2 µM | GI50 [27]: 46.5 µM | TGI [27]: > 100 µM | GI50 [28]: 26.2 µM | TGI [28]: > 100 µM | GI50 [29]: 21.3 µM | TGI [29]: 63.3 µM | GI50 [30]: 13.4 µM | TGI [30]: 72.5 µM | GI50 [31]: 19.7 µM | TGI [31]: > 100 µM | GI50 [32]: 8.76 µM | TGI [32]: 85.8 µM | GI50 [33]: 23.9 µM | TGI [33]: > 100 µM | GI50 [34]: 20.8 µM | TGI [34]: 78.3 µM | GI50 [35]: 30.5 µM | TGI [35]: > 100 µM | GI50 [36]: 7.51 µM | TGI [36]: > 100 µM | GI50 [37]: 2.76 µM | TGI [37]: 15.4 µM | GI50 [38]: 4.45 µM | TGI [38]: > 100 µM | GI50 [39]: 14.7 µM | TGI [39]: 40.8 µM | GI50 [40]: 18.4 µM | TGI [40]: 56.1 µM | GI50 [41]: 18 µM | TGI [41]: 56.4 µM | GI50 [42]: 13.6 µM | TGI [42]: 48.9 µM | GI50 [43]: 32.2 µM | TGI [43]: > 100 µM | GI50 [44]: 39.5 µM | TGI [44]: > 100 µM | GI50 [45]: 29.1 µM | TGI [45]: > 100 µM | GI50 [46]: 13 µM | TGI [46]: > 100 µM | GI50 [47]: 22.3 µM | TGI [47]: 80.7 µM | GI50 [48]: 21.7 µM | TGI [48]: 77.6 µM | GI50 [49]: 13.3 µM | TGI [49]: 29.8 µM | GI50 [50]: 33.9 µM | TGI [50]: > 100 µM | GI50 [51]: 22.2 µM | TGI [51]: > 100 µM | GI50 [52]: 10.1 µM | TGI [52]: > 100 µM | GI50 [53]: 30.5 µM | TGI [53]: > 100 µM | GI50 [54]: 11.9 µM | TGI [54]: 38.2 µM | GI50 [55]: 13 µM | TGI [55]: 32.3 µM | GI50 [56]: 25.3 µM | TGI [56]: > 100 µM
